Experimental data as given in patent publication US12168673B2 (Mitopower, Inc., priority 2022, dated 2024).
Where two headings read alike, the source gives them in different places.

Experiments:
[1] = Solid state stability (purity by UPLC); assay type: physicochemical
Experimental: Compounds 100, 101 and 102 were kept in glass vials at three different locations at temperatures of […], 2-8° C. and −20° C. in order to assess solid state stability at room temperature, refrigerated conditions and in a deep freezer. The compounds from these vials were assessed for purity by UPLC at three different timepoints 0 hrs, 24 hrs and 48 hrs. Table 2 depicts the results obtained for solid state stability at 25° C., 2-8° C. and −20° C. respectively. Purity measurements were made at 0 hrs, 24 hours and 48 hours.

[2] = Caco-2 permeability assay; details: human
Source text: The endpoint measured is the intestinal permeability expressed as apparent permeability—Papp value. All permeability values are represented as ×10^−6 cm/sec.

Kinetic solubility = assay type: physicochemical; details: for solubility at 1.5 h: aqueous buffer, kinetic from dmso stock, 0.1 M phosphate buffered saline pH 7.4, target 100 μM; for % Solubility: at 100 μM, 0.1 M phosphate buffered saline pH 7.4
Experimental: The target compound concentration was 100 μM (kinetic), the assay buffer was 0.1 M phosphate buffered saline pH 7.4, the mixing period was 1.5 h (kinetic). The sample was prepared by centrifugation or filtration and the detection method used was HPLC with UV-vis spectrometry.

[3] = Human hepatocyte clearance; assay type: in vitro ADME; details: human hepatocytes
Experimental: A hepatocyte vial was taken out from the liquid nitrogen tank and was thawed in a water bath maintained at 37° C. The thawed cell suspension was transferred into a torsion tube containing 50 mL of thawing media (Xenotech). The thawing media containing hepatocytes was centrifuged at 1000 rpm for 5 min, the supernatant was discarded and the pellet was resuspended in 2 ml of Xenotech OptiIncubate Media. The cells were counted by using a haemocytometer after mixing an aliquot of cell suspension with equal volume of trypan blue. The cell suspension was diluted to a working density of 2 million cells with DMEM media without FBS/incubation media.
The assay was performed in duplicates (n=2). 150 μL of 2 million cell working stock of hepatocyte cell suspension was added to a 24 well plate and incubated in a 37° C. incubator, with speed of 500 RPM for 10 min. 150 μL of 2 μM working stock of test compound was incubated separately. The reaction at 0, 15, 30, 60 and 90 min was stopped by precipitating 20 μL of incubation mixture with 200 μL of acetonitrile containing internal standard. […] The supernatant was separated and diluted 1:1 with water before injecting in LC-MS/MS analysis.

Human Plasma Protein = assay: in vitro; details: human, plasma
Experimental: The test compounds were weighed and prepared as 10 mM stocks in 100% DMSO. 10 μM is the final test concentration for all compounds.
The samples were prepared by spiking test compound(s) in plasma at 10 μM final concentration. 200 μL of plasma containing the test compound was added into the donor well (RED Chamber) of the insert. Simultaneously 350 μL of dialysis buffer (1×PBS) was added into the receiver well (white chamber). Two measurements were made for each test compound. The plate was covered with a sealer and incubated at 37° C. degrees on an orbital shaker at 500 rpm for 5 hours.
After incubation, 25 μl of plasma (RED chamber) and 25 μl of buffer (white chamber) samples were separately collected into separate centrifugation tubes. Plasma and buffer samples were precipitated with 200 μL of 100% acetonitrile containing internal standards. 25 μl of T0 (T Zero) plasma samples (samples before 5 hours incubation) were collected (To samples were processed immediately after the preparation of plasma working stock solution. These samples serve as a measure for calculating the percentage recovery of the test compound and precipitated using 100% acetonitrile containing internal standards). The samples were vortexed at 1000 rpm for 5 min and centrifuged at 4000 rpm for 10 min. The supernatant was diluted 2-fold with water and injected into LC-MS/MS.
The % of Plasma bound/unbound fraction was calculated by the following equation: % Unbound or % free=100*(Fc/Tc); % Recovery=100 (Fc+Tc)/[…] where Tc=Total compound concentration as determined by the calculated concentration on the plasma side of the membrane (concentration in plasma chamber), Fc=Free compound concentration as determined by the calculated concentration on the buffer side of the membrane (concentration in buffer chamber) and T0=Total compound concentration as determined before dialysis.

human hepatocytes = assay: Human hepatocyte stability
Experimental: 10 mM stock solution of test compound was prepared in DMSO and diluted to a concentration of 1 mM with DMSO. Working concentration of 2 μM was prepared by further dilution with PBS. Preincubation mixture of 150 μL of hepatocyte cell suspension (1,000,000 cells/mL, INVITROGRO HT medium buffer), was added to vials for preincubation for 10 min @37° C.
150 μL of 2 μM working stock of the test compound was added to the cell suspension and incubated at @37 C at 500 rpm. The reaction was stopped at 0, 15, 30, 60 and 90 min by precipitating 50 μL of the incubation mixture with 150 μL of acetonitrile. Samples were vortexed for 5 min at 1200 rpm and centrifuged at 4000 rpm for 10 min. 150 μL of the supernatant was diluted with 150 μL of water and injected in MS system (SCIEX, API 4500 Q Trap) for analysis.

[4] = read-out: Mean Solubility (μg/mL)

| SMILES | Solid State Stability (% Purity) ([1]; 2-8° C., 0 hr) | Solid State Stability (% Purity) ([1]; 2-8° C., 24 hr) | Solid State Stability (% Purity) ([1]; 2-8° C., 48 hr) | Solid State Stability (% Purity) ([1]; 25° C., 0 hr) | Solid State Stability (% Purity) ([1]; 25° C., 24 hr) | Solid State Stability (% Purity) ([1]; 25° C., 48 hr) | Solid State Stability (% Purity) ([1]; −20° C., 0 hr) | Solid State Stability (% Purity) ([1]; −20° C., 24 hr) | Solid State Stability (% Purity) ([1]; −20° C., 48 hr) | Papp A→B [2] | Papp B→A [2] | efflux ratio [2] | recovery ([2]; Caco-2, % Recovery A to B) | recovery ([2]; Caco-2, % Recovery B to A) | solubility at 1.5 h (Kinetic solubility; read-out: Mean Solubility) | solubility at 1.5 h (Kinetic solubility; [4]) | % Solubility (Kinetic solubility) | half-life at 1 μM [3] | hepatocyte CLint at 1 μM [3] | clearance in human hepatocytes (in words) (human hepatocytes) | other results |
| --- | --- | --- | --- | --- | --- | --- | --- | --- | --- | --- | --- | --- | --- | --- | --- | --- | --- | --- | --- | --- | --- |
| O=C(OC1O[C@H](CO)[C@@H](O)[C@H]1O)c1cccnc1 (stereo partly drawn) [Compound 100, (3R, 4S, 5R)-3,4-dihydroxy-5-(hydroxymethyl) tetrahydrofuran-2-yl nicotinate] | 96.29% | 96.32% | 96.28% | 96.02% | 96.23% | 96.22% | 96.33% | 96.32% | 96.49% | 0.5 ×10⁻⁶ cm/s | 0.6 ×10⁻⁶ cm/s | 1.2 | 98.5% | 89% | 96.5 µM | 24.6 µg/mL | 96% | 142 min | 4.86 µL/min/1e6 cells | medium clearance | protein binding (footnote, in words) (Human Plasma Protein): Compounds 100 and 102 were not detected indicating no protein binding as shown in Table 12, above.; % Parent Remaining (human hepatocytes; 0 mins): 100%; % Parent Remaining (human hepatocytes; 15 mins): 97%; % Parent Remaining (human hepatocytes; 30 mins): 87.6%; % Parent Remaining (human hepatocytes; 60 mins): 73.0%; % Parent Remaining (human hepatocytes; 90 mins): 66.4% |
| COC(=O)[C@@H](C)NP(=O)(OC[C@H]1OC(OC(=O)c2cccnc2)[C@H](O)[C@@H]1O)Oc1ccccc1 (stereo partly drawn) [Compound 101, (3R, 4S, 5R)-3,4-dihydroxy-5-(((((1-methoxy-1-oxopropan-2-yl)amino)(phenoxy)phosphoryl)oxy)methyl)tetrahydrofuran-2-yl nicotinate] | 93.20% | 90.57% | 90.59% | 93.20% | 89.68% | 90.66% | 93.20% | 90.72% | 90.63% | 0.2 ×10⁻⁶ cm/s | 6.1 ×10⁻⁶ cm/s | 39 | 86.5% | 87.9% | 117 µM | 58 µg/mL | 100% | – | – | high clearance | half-life at 1 μM ([3]; 1 μM, 0-90 min, read-out: T½): 12.8 min; hepatocyte CLint at 1 μM ([3]; 1 μM, read-out: Intrinsic Clearance (CL Int)): 53.9 µL/min/1e6 cells; Remarks (binding class) (Human Plasma Protein): Medium binding; % Parent Remaining (human hepatocytes; 0 mins): 100%; % Parent Remaining (human hepatocytes; 15 mins): 43%; % Parent Remaining (human hepatocytes; 30 mins): 20.1%; % Parent Remaining (human hepatocytes; 60 mins): 6.4%; % Parent Remaining (human hepatocytes; 90 mins): 2.0% |
| O=C(OC[C@H]1OC(O)[C@H](O)[C@@H]1O)c1ccccn1 (stereo partly shown) [Compound 102, (3,4,5-trihydroxytetrahydrofuran-2-yl) methyl picolinate] | 95.28% | 95.18% | 95.45% | 95.60% | 95.55% | 95.23% | 95.26% | 95.27% | 95.28% | 0.9 ×10⁻⁶ cm/s | 0.8 ×10⁻⁶ cm/s | 1 | 94.9% | 90.7% | 105 µM | 26.9 µg/mL | 100% | 45.7 min | 15.2 µL/min/1e6 cells | medium clearance | protein binding (footnote, in words) (Human Plasma Protein): Compounds 100 and 102 were not detected indicating no protein binding as shown in Table 12, above. |
